This note sets out measurements from PubChem BioAssay AID330 (DTP/NCI, 2004).

“And” between values parts separate entries of the source, which are not always exact repeats. Equal entries are not always repeated. Toxic doses and inconclusive results are not listed. Square brackets hold non-standard residues; d marks the D form. Peptide text beside a SMILES is read from it. * marks the point of attachment. ξ: configuration not given here. Cbz = O=C(OCc1ccccc1)*; ξM = CSCCC(N)C(=O)O

This experiment concerns P388 leukemia ip, CD2F1 mice, survival T/C. The experiment can be described thus: NCI In Vivo Anticancer Drug Screen. Data for tumor model P388 Leukemia (intraperitoneal) in CD2F1 (CDF1) mice. The conditions noted are these: endpoint: median survival time, higher = longer survival. The procedure, abridged: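 Mice carrying the transplanted tumor received test compound or vehicle. Survival was recorded in each group, and the value is the treated-group measurement divided by that of the vehicle-treated control group.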

[1] abbreviates: dose: 50.0 mg/kg/injection, schedule: Q01DX009 (ip), vehicle: saline with Tween-80.
[2] abbreviates: dose: 100.0 mg/kg/injection, schedule: Q01DX009 (ip), vehicle: saline with Tween-80.
[3] abbreviates: dose: 100.0 mg/kg/injection, schedule: Q01DX001 (ip), vehicle: saline with Tween-80.
[4] abbreviates: dose: 400.0 mg/kg/injection, schedule: Q01DX001 (ip), vehicle: saline with Tween-80.
Setting [5] is: dose: 50.0 mg/kg/injection, schedule: Q01DX005 (ip), vehicle: Klucel (hydroxypropylcellulose) (HPC).
[6] abbreviates: dose: 100.0 mg/kg/injection, schedule: Q01DX005 (ip), vehicle: Klucel (hydroxypropylcellulose) (HPC).
The mark [7] stands for this setting: dose: 200.0 mg/kg/injection, schedule: Q01DX005 (ip), vehicle: Klucel (hydroxypropylcellulose) (HPC).
Where [8] appears, read: dose: 60.0 mg/kg/injection, schedule: Q01DX005 (ip), vehicle: saline with Tween-80.
Setting [9] is: dose: 120.0 mg/kg/injection, schedule: Q01DX005 (ip), vehicle: saline with Tween-80.
The mark [10] stands for this setting: dose: 240.0 mg/kg/injection, schedule: Q01DX005 (ip), vehicle: saline with Tween-80.
[11] abbreviates: dose: 50.0 mg/kg/injection, schedule: Q01DX005 (ip), vehicle: saline with Tween-80.
[12] abbreviates: dose: 100.0 mg/kg/injection, schedule: Q01DX005 (ip), vehicle: saline with Tween-80.
Setting [13] is: dose: 200.0 mg/kg/injection, schedule: Q01DX005 (ip), vehicle: saline with Tween-80.
Setting [14] is: dose: 100.0 mg/kg/injection, schedule: Q04DX002 (ip), vehicle: saline with Tween-80.
Where [15] appears, read: dose: 200.0 mg/kg/injection, schedule: Q04DX002 (ip), vehicle: saline with Tween-80.
[16] abbreviates: dose: 400.0 mg/kg/injection, schedule: Q04DX002 (ip), vehicle: saline with Tween-80.
Where [17] appears, read: dose: 200.0 mg/kg/injection, schedule: Q01DX001 (ip), vehicle: saline with Tween-80.

Turning to `CC1(C)NC(=O)N(Br)C1=O`, the T/C runs as follows: under setting [1], 104 % of control; under setting [2], 100 % of control; (dose: 200.0 mg/kg/injection, schedule: Q01DX009 (ip), vehicle: saline with Tween-80) 104 % of control.
On to `Nc1ncnc2c1ncn2C1OCC(O)C1O` (stereo not given), for which the T/C is, setting by setting: (dose: 50.0 mg/kg/injection, schedule: Q01DX009 (ip), vehicle: suspension in saline) 119 % of control; (dose: 100.0 mg/kg/injection, schedule: Q01DX009 (ip), vehicle: suspension in saline) 112 % of control.
With `CCCCOP(=O)(O)OCCCC.[Th]`, the T/C was 113 % of control (dose: 25.0 mg/kg/injection, schedule: Q01DX001 (ip), vehicle: saline with Tween-80); 100 % of control (dose: 50.0 mg/kg/injection, schedule: Q01DX001 (ip), vehicle: saline with Tween-80); 102 % of control under setting [3]; 97 % of control under setting [4].
`O=NNc1cncc(Cl)n1`: the T/C is 100 % of control (dose: 3.12 mg/kg/injection, schedule: Q01DX009 (ip), vehicle: water); 97 % of control (dose: 6.25 mg/kg/injection, schedule: Q01DX009 (ip), vehicle: water); 105 % of control (dose: 12.5 mg/kg/injection, schedule: Q01DX009 (ip), vehicle: water); 99 % of control (dose: 25.0 mg/kg/injection, schedule: Q01DX009 (ip), vehicle: water); 92 % of control and 97 % of control (dose: 50.0 mg/kg/injection, schedule: Q01DX009 (ip), vehicle: water).
On to `O=[N+]([O-])c1ccc(O)c(O)c1`, for which the T/C runs as follows: (dose: 12.5 mg/kg/injection, schedule: Q01DX009 (ip), vehicle: saline) 100 % of control; (dose: 25.0 mg/kg/injection, schedule: Q01DX009 (ip), vehicle: saline) 108 % of control; (dose: 50.0 mg/kg/injection, schedule: Q01DX009 (ip), vehicle: saline) 98 % of control.
As to `COc1cccc([B-]23OCC[N+]2(CNC(=O)c2ccccc2O)CCO3)c1` (stereo not given), the T/C runs as follows: under setting [5], 106 % of control; under setting [6], 104 % of control; under setting [7], 112 % of control.
As for `C=C1C(=O)C23C(O)C1CCC2C12CCCC(C)(C)C1C(O)C3(O)OC2` (stereo not given), the T/C (dose: 2.5 mg/kg/injection, schedule: Q01DX005 (ip), vehicle: Klucel (hydroxypropylcellulose) (HPC)) is 101 % of control; the T/C (dose: 5.0 mg/kg/injection, schedule: Q01DX005 (ip), vehicle: Klucel (hydroxypropylcellulose) (HPC)) is 107 % of control; the T/C (dose: 10.0 mg/kg/injection, schedule: Q01DX005 (ip), vehicle: Klucel (hydroxypropylcellulose) (HPC)) is 108 % of control.
As to `C/C=C/c1nn(-c2ccccc2)c2c1C(=O)CC(C)O2` (stereo not given), the T/C under setting [8] was 96 % of control, the T/C under setting [9] was 95 % of control and the T/C under setting [10] was 96 % of control.
As to `Cc1ccc(S(=O)(=O)CC(=O)CC(=O)C(=O)NC2C3CC4CC(C3)CC2C4)cc1` (stereo not given), the T/C under setting [11] is 98 % of control, the T/C under setting [12] is 90 % of control and the T/C under setting [13] is 90 % of control.
For the compound `Cc1ccc(N/N=c2\c3nc4ccccc4nc2n(-c2ccccc2C)c(=S)n3-c2ccccn2)cc1`, the T/C is 100 % of control under setting [11] and 96 % of control under setting [12].
In the case of `Cn1c(Cc2ccccc2)c(C(=O)/C=C/c2ccccc2)c(=O)n(C)c1=O`, the T/C reads like this: under setting [11], 103 % of control; under setting [12], 100 % of control; under setting [13], 99 % of control.
As to `CC(=O)OB(OC(C)=O)O[B-]12Oc3ccccc3C=[N+]1c1ccccc1S2` (stereo not given), the T/C runs as follows: under setting [14], 106 % of control; under setting [15], 97 % of control; under setting [16], 92 % of control.
`COC(OC)C(=O)OC(C)(C)C`: the T/C by setting is: under setting [8], 103 % of control; under setting [9], 100 % of control; under setting [10], 101 % of control.
In the case of `CCC(C)C(NC(=O)OC(C)(C)c1ccc(-c2ccccc2)cc1)C(=O)O` (stereo not given), the T/C runs as follows: under setting [11], 99 % of control; under setting [12], 102 % of control; under setting [13], 95 % of control.
For `CCCOC(=O)CCCC1=NC2=CC=CC3=NC(C)=NC(=N1)N23`, the T/C (dose: 25.0 mg/kg/injection, schedule: Q01DX009 (ip), vehicle: saline with Tween-80) is 107 % of control; the T/C under setting [1] was 104 % of control; the T/C under setting [2] is 104 % of control.
`O=C(O)c1ccc[nH]c1=O`: the T/C is 98 % of control (dose: 25.0 mg/kg/injection, schedule: Q04DX003 (ip), vehicle: saline); 112 % of control (dose: 50.0 mg/kg/injection, schedule: Q04DX003 (ip), vehicle: saline); 99 % of control (dose: 100.0 mg/kg/injection, schedule: Q04DX003 (ip), vehicle: saline); 93 % of control (dose: 200.0 mg/kg/injection, schedule: Q04DX003 (ip), vehicle: saline).
Turning to `COC(=O)C(Cc1ccccc1)NC(=O)C(C)NC(=O)c1ccc(OC)cc1` (stereo not given), the T/C under setting [3] is 100 % of control, the T/C under setting [17] was 100 % of control and the T/C under setting [4] is 93 % of control.
Take `CC1C(=O)C23CCC4C5(C)CCCC4(C4OCCN4C5)C2CCC1C3` (stereo not given): the T/C reads like this: (dose: 1.0 mg/kg/injection, schedule: Q01DX009 (ip), vehicle: Klucel (hydroxypropylcellulose) (HPC)) 99 % of control; (dose: 2.0 mg/kg/injection, schedule: Q01DX009 (ip), vehicle: Klucel (hydroxypropylcellulose) (HPC)) 97 % of control; (dose: 4.0 mg/kg/injection, schedule: Q01DX009 (ip), vehicle: Klucel (hydroxypropylcellulose) (HPC)) 98 % of control; (dose: 8.0 mg/kg/injection, schedule: Q01DX009 (ip), vehicle: Klucel (hydroxypropylcellulose) (HPC)) 97 % of control.
For the compound `CSCCC(NC(=O)CNC(=O)CNC(=O)OCc1ccccc1)C(=O)O` (stereo not drawn) (Cbz-Gly-Gly-[ξM]-OH), the T/C was 95 % of control under setting [5], 98 % of control under setting [6] and 98 % of control under setting [7].
`CC(=O)Nc1ccc(NC(=S)Nc2ccccc2C(F)(F)F)cc1`: the T/C by setting is: (dose: 50.0 mg/kg/injection, schedule: Q01DX009 (ip), vehicle: Klucel (hydroxypropylcellulose) (HPC)) 96 % of control; (dose: 100.0 mg/kg/injection, schedule: Q01DX009 (ip), vehicle: Klucel (hydroxypropylcellulose) (HPC)) 92 % of control; (dose: 200.0 mg/kg/injection, schedule: Q01DX009 (ip), vehicle: Klucel (hydroxypropylcellulose) (HPC)) 87 % of control.
`O=c1c(=NO)c(=O)c2ccccc12`: the T/C is, setting by setting: under setting [3], 103 % of control; under setting [17], 110 % of control.
Regarding `Cn1c(=O)c(CCCC(=O)O)nc2ccccc21`, the T/C is 97 % of control under setting [14], 102 % of control under setting [15] and 107 % of control under setting [16].
For the compound `CC([NH-])CC(C)[NH-].O=[N+]([O-])O.O=[N+]([O-])O.[Pt+2]` (stereo not given), where the note is “dose: 25.0 mg/kg/injection, schedule: Q04DX002 (ip), vehicle: saline”, the T/C is 159 % of control.
For the compound `COc1ccc(C2OC3=C(Nc4ccc([N+](=O)[O-])cc4N3)C2=O)cc1` (stereo not given), the T/C (dose: 0.93 mg/kg/injection, schedule: Q01DX005 (ip), vehicle: Klucel (hydroxypropylcellulose) (HPC)) is 89 % of control; the T/C (dose: 1.87 mg/kg/injection, schedule: Q01DX005 (ip), vehicle: Klucel (hydroxypropylcellulose) (HPC)) was 93 % of control; the T/C (dose: 3.75 mg/kg/injection, schedule: Q01DX005 (ip), vehicle: Klucel (hydroxypropylcellulose) (HPC)) is 92 % of control.
Consider `Cc1ccc(S(=O)(=O)N2CCCN(S(=O)(=O)c3ccc(C)cc3)COC2)cc1`, for which the T/C (dose: 60.0 mg/kg/injection, schedule: Q01DX005 (ip), vehicle: Klucel (hydroxypropylcellulose) (HPC)) was 102 % of control; the T/C (dose: 120.0 mg/kg/injection, schedule: Q01DX005 (ip), vehicle: Klucel (hydroxypropylcellulose) (HPC)) is 101 % of control; the T/C (dose: 240.0 mg/kg/injection, schedule: Q01DX005 (ip), vehicle: Klucel (hydroxypropylcellulose) (HPC)) is 102 % of control.
Consider `CCCCCCNC(=O)C1C(=O)N(CCCCCC)C(=O)/C1=N\N=C(N)N` (stereo not given), for which the T/C under setting [8] was 109 % of control and the T/C under setting [9] was 109 % of control.
As to `O=C(COc1cccc(Cl)c1)NCc1ccc([N+](=O)[O-])cc1`, the T/C by setting is: under setting [3], 100 % of control; under setting [17], 90 % of control; under setting [4], 100 % of control.
